Source: PubChem BioAssay AID330 (DTP/NCI, 2004)
Values joined by “and” are separate entries in the source; they are usually repeats but may differ in a detail not shown here. Equal entries are not always repeated. Toxic doses and inconclusive results are not listed. Rule for the calls: active = survival T/C of 150% or more; inactive = T/C below 125% in these data. Square brackets hold non-standard residues; d marks the D form. Peptide text beside a SMILES is read from it. * marks the point of attachment. ξ: configuration not given here. Cbz = O=C(OCc1ccccc1)*; ξNva = CCCC(N)C(=O)O

Tested on: P388 leukemia ip, CD2F1 mice, survival T/C
Experiment: NCI In Vivo Anticancer Drug Screen. Data for tumor model P388 Leukemia (intraperitoneal) in CD2F1 (CDF1) mice
Details: endpoint: median survival time, higher = longer survival
Procedure, shortened: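 Mice carrying the transplanted tumor received test compound or vehicle. Survival was recorded in each group, and the value is the treated-group measurement divided by that of the vehicle-treated control group.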

[1] = dose: 25.0 mg/kg/injection, schedule: Q01DX009 (ip), vehicle: saline with Tween-80
[2] = dose: 50.0 mg/kg/injection, schedule: Q01DX009 (ip), vehicle: saline with Tween-80
[3] = dose: 100.0 mg/kg/injection, schedule: Q01DX009 (ip), vehicle: saline with Tween-80
[4] = dose: 100.0 mg/kg/injection, schedule: Q04DX003 (ip), vehicle: saline with Tween-80
[5] = dose: 200.0 mg/kg/injection, schedule: Q01DX009 (ip), vehicle: saline with Tween-80
[6] = dose: 200.0 mg/kg/injection, schedule: Q04DX003 (ip), vehicle: saline with Tween-80
[7] = dose: 60.0 mg/kg/injection, schedule: Q01DX005 (ip), vehicle: saline with Tween-80
[8] = dose: 120.0 mg/kg/injection, schedule: Q01DX005 (ip), vehicle: saline with Tween-80
[9] = dose: 240.0 mg/kg/injection, schedule: Q01DX005 (ip), vehicle: saline with Tween-80
[10] = dose: 100.0 mg/kg/injection, schedule: Q04DX002 (ip), vehicle: saline with Tween-80
[11] = dose: 200.0 mg/kg/injection, schedule: Q04DX002 (ip), vehicle: saline with Tween-80
[12] = dose: 400.0 mg/kg/injection, schedule: Q04DX002 (ip), vehicle: saline with Tween-80
[13] = dose: 100.0 mg/kg/injection, schedule: Q01DX001 (ip), vehicle: Klucel (hydroxypropylcellulose) (HPC)
[14] = dose: 12.5 mg/kg/injection, schedule: Q01DX009 (ip), vehicle: saline
[15] = dose: 25.0 mg/kg/injection, schedule: Q01DX009 (ip), vehicle: saline
[16] = dose: 50.0 mg/kg/injection, schedule: Q01DX005 (ip), vehicle: saline with Tween-80
[17] = dose: 100.0 mg/kg/injection, schedule: Q01DX005 (ip), vehicle: saline with Tween-80

Measured: T/C

NC(=O)/C=C/C(N)=O
inactive: dose: 12.5 mg/kg/injection, schedule: Q01DX009 (ip), vehicle: saline with Tween-80 104 % of control | [1] 98 % of control | [2] 102 % of control | [3] 107 % of control | [4] 90 % of control | [5] 101 % of control | [6] 90 % of control

CCCCN=C(N=C(NC(=O)c1ccccc1)c1ccccc1)c1ccccc1
inactive: [2] 90 % of control | [3] 89 % of control | [5] 93 % of control

Nn1c(-c2ccc(Cl)c(Cl)c2)nc2ccccc2c1=O
inactive: [2] 89 % of control | [3] 99 % of control | [5] 98 % of control

O=C(NCc1ccc(S(=O)(=O)F)cc1)Oc1ccc([N+](=O)[O-])cc1
inactive: dose: 7.5 mg/kg/injection, schedule: Q01DX005 (ip), vehicle: saline with Tween-80 102 % of control | dose: 15.0 mg/kg/injection, schedule: Q01DX005 (ip), vehicle: saline with Tween-80 96 % of control | dose: 30.0 mg/kg/injection, schedule: Q01DX005 (ip), vehicle: saline with Tween-80 99 % of control | [7] 99 % of control and 112 % of control

Oc1c(Br)cc(Br)cc1C1CCCCC1
inactive: [1] 110 % of control | [2] 119 % of control | [3] 107 % of control | [5] 113 % of control

[Fe]=[Se]
inactive: [7] 96 % of control | [8] 86 % of control | [9] 107 % of control

S=C=NCCCCCCCCCCCCN=C=S
inactive: dose: 3.12 mg/kg/injection, schedule: Q01DX009 (ip), vehicle: saline with Tween-80 112 % of control and 115 % of control | dose: 6.25 mg/kg/injection, schedule: Q01DX009 (ip), vehicle: saline with Tween-80 106 % of control and 120 % of control

CC1(O)Cn2c(=O)c3cc4ccccc4cc3c(=O)n2CC1(C)Br (configuration not stated)
inactive: dose: 50.0 mg/kg/injection, schedule: Q04DX002 (ip), vehicle: DMSO 105 % of control | dose: 100.0 mg/kg/injection, schedule: Q04DX002 (ip), vehicle: DMSO 101 % of control | dose: 200.0 mg/kg/injection, schedule: Q04DX002 (ip), vehicle: DMSO 101 % of control

COC(=O)C1CC2C(=O)N(C)C=CC12 (configuration not stated)
inactive: [10] 104 % of control | [11] 98 % of control | [12] 102 % of control

O=c1cc(-c2ccccc2)oc2c(OCc3ccccc3)c(OCc3ccccc3)ccc12
inactive: [10] 100 % of control | [11] 102 % of control | [12] 96 % of control

CC1(C)OC2(C)NS(=O)(=O)c3ccc(Cl)cc3N2C1=O (configuration not stated)
inactive: [2] 106 % of control | [3] 100 % of control | [5] 98 % of control

CC(C)(C)c1ccc(OCC(COc2ccc(C(C)(C)C)cc2)(COc2ccc(C(C)(C)C)cc2)COc2ccc(C(C)(C)C)cc2)cc1
inactive: dose: 7.5 mg/kg/injection, schedule: Q01DX009 (ip), vehicle: saline with Tween-80 98 % of control | dose: 15.0 mg/kg/injection, schedule: Q01DX009 (ip), vehicle: saline with Tween-80 95 % of control | dose: 30.0 mg/kg/injection, schedule: Q01DX009 (ip), vehicle: saline with Tween-80 93 % of control

CCCC(NC(=O)CNC(=O)OCc1ccccc1)C(=O)O (stereo not drawn) (Cbz-Gly-[ξNva]-OH)
inactive: dose: 50.0 mg/kg/injection, schedule: Q01DX005 (ip), vehicle: Klucel (hydroxypropylcellulose) (HPC) 104 % of control | dose: 100.0 mg/kg/injection, schedule: Q01DX005 (ip), vehicle: Klucel (hydroxypropylcellulose) (HPC) 98 % of control

FC(F)C(F)(F)C(F)(F)C(F)(F)COCC1(COCC(F)(F)C(F)(F)C(F)(F)C(F)F)COC1
inactive: [2] 100 % of control | [3] 106 % of control | [5] 109 % of control

C=Cn1c([N+](=O)[O-])cnc1/C=C/c1ccc(C#N)cc1
inactive: [13] 94 % of control | dose: 200.0 mg/kg/injection, schedule: Q01DX001 (ip), vehicle: Klucel (hydroxypropylcellulose) (HPC) 96 % of control | dose: 400.0 mg/kg/injection, schedule: Q01DX001 (ip), vehicle: Klucel (hydroxypropylcellulose) (HPC) 93 % of control

COc1cc(NC(=O)SC2=NCCS2)cc(OC)c1
inactive: [2] 107 % of control | [3] 110 % of control | [5] 100 % of control

O=[N+]([O-])Nc1ccccn1
inactive: dose: 100.0 mg/kg/injection, schedule: Q04DX002 (ip), vehicle: saline 114 % of control | dose: 200.0 mg/kg/injection, schedule: Q04DX002 (ip), vehicle: saline 110 % of control | dose: 400.0 mg/kg/injection, schedule: Q04DX002 (ip), vehicle: saline 97 % of control

c1ccc(N=C2c3ccccc3NC2(c2ccccc2)c2ccccc2)cc1
inactive: [2] 101 % of control | [3] 93 % of control

CNC(=O)OCc1c(COC(=O)NC)c(C)n(-c2ccc(Cl)c(Cl)c2)c1C
active: [14] 154 % of control and 160 % of control | [15] 165 % of control

CC1OC(Sc2ncc[nH]2)C(O)C(O)C1O (configuration not stated)
inactive: dose: 60.0 mg/kg/injection, schedule: Q01DX005 (ip), vehicle: saline 95 % of control | dose: 120.0 mg/kg/injection, schedule: Q01DX005 (ip), vehicle: saline 94 % of control | dose: 240.0 mg/kg/injection, schedule: Q01DX005 (ip), vehicle: saline 100 % of control

COC(=O)/C=C/C(=O)NC(O)C(Cl)(Cl)Cl (configuration not stated)
inactive: [16] 102 % of control | [17] 107 % of control | dose: 200.0 mg/kg/injection, schedule: Q01DX005 (ip), vehicle: saline with Tween-80 102 % of control

Nc1cc(=O)c2n[nH]nc2[nH]1
inactive: dose: 50.0 mg/kg/injection, schedule: Q04DX003 (ip), vehicle: saline with Tween-80 100 % of control | [4] 108 % of control | [6] 108 % of control | dose: 400.0 mg/kg/injection, schedule: Q04DX003 (ip), vehicle: saline with Tween-80 107 % of control

C=CC(=NC(C)(C)C)Nc1ccccc1C(=O)OC
inactive: [14] 108 % of control | [15] 107 % of control | [2] 101 % of control | dose: 50.0 mg/kg/injection, schedule: Q01DX009 (ip), vehicle: saline 108 % of control

CC(=O)NS(=O)(=O)c1ccc(N=Nc2c(O)n(-c3ccccc3)n(-c3ccccc3)c2=O)cc1
inactive: dose: 50.0 mg/kg/injection, schedule: Q01DX009 (ip), vehicle: Klucel (hydroxypropylcellulose) (HPC) 88 % of control | dose: 100.0 mg/kg/injection, schedule: Q01DX009 (ip), vehicle: Klucel (hydroxypropylcellulose) (HPC) 101 % of control | dose: 200.0 mg/kg/injection, schedule: Q01DX009 (ip), vehicle: Klucel (hydroxypropylcellulose) (HPC) 109 % of control

O=C(Cc1ccccc1)c1c[nH]c2c(O)ccc(O)c12
inactive: dose: 50.0 mg/kg/injection, schedule: Q04DX002 (ip), vehicle: Klucel (hydroxypropylcellulose) (HPC) 104 % of control | dose: 100.0 mg/kg/injection, schedule: Q04DX002 (ip), vehicle: Klucel (hydroxypropylcellulose) (HPC) 108 % of control | dose: 200.0 mg/kg/injection, schedule: Q04DX002 (ip), vehicle: Klucel (hydroxypropylcellulose) (HPC) 111 % of control

O=C1C(=O)N(c2ccc([N+](=O)[O-])cc2)C(=O)N1c1ccc([N+](=O)[O-])cc1
inactive: [7] 112 % of control | [8] 95 % of control | [9] 95 % of control

NP(N)(=O)NC(=O)c1ccc(F)cc1
inactive: [16] 100 % of control | [17] 100 % of control

COC(=O)[C@H](C)C1OC(O)C=CC1=O (some centres not stated)
inactive: dose: 6.25 mg/kg/injection, schedule: Q01DX001 (ip), vehicle: saline + Tween-80 + alcohol 100 % of control | dose: 12.5 mg/kg/injection, schedule: Q01DX001 (ip), vehicle: saline + Tween-80 + alcohol 108 % of control | dose: 25.0 mg/kg/injection, schedule: Q01DX001 (ip), vehicle: saline + Tween-80 + alcohol 101 % of control | dose: 50.0 mg/kg/injection, schedule: Q01DX001 (ip), vehicle: saline + Tween-80 + alcohol 101 % of control

COc1ccc(-c2cc(-c3ccccc3)c(-c3ccccc3)nn2)cc1
inactive: [2] 96 % of control | [3] 101 % of control | [5] 96 % of control

O=C(CCl)Nc1ccc2c(c1)C(=O)c1cccn1-2
inactive: dose: 25.0 mg/kg/injection, schedule: Q01DX001 (ip), vehicle: Klucel (hydroxypropylcellulose) (HPC) 97 % of control | dose: 25.0 mg/kg/injection, schedule: Q04DX003 (ip), vehicle: Klucel (hydroxypropylcellulose) (HPC) 92 % of control | dose: 50.0 mg/kg/injection, schedule: Q01DX001 (ip), vehicle: Klucel (hydroxypropylcellulose) (HPC) 97 % of control | dose: 50.0 mg/kg/injection, schedule: Q04DX003 (ip), vehicle: Klucel (hydroxypropylcellulose) (HPC) 97 % of control | [13] 96 % of control | dose: 100.0 mg/kg/injection, schedule: Q04DX003 (ip), vehicle: Klucel (hydroxypropylcellulose) (HPC) 107 % of control
